Earlier results on one molecule are cited in PubChem BioAssay AID1259409 (Chemical Carcinogenesis Research Information System (CCRIS), 2018).

Where “and” joins values, the source holds several entries; their conditions need not be identical. Equal values may be shown once.

The test system of this series is rodent chemically induced tumor inhibition, incidence and multiplicity. Kind of series: CCRIS tumor inhibitor studies. The following applies: Carcinogen: 7,12-DIMETHYLBENZ[A]ANTHRACENE, 57-97-6, Route [Inhibitor]: DERMAL, Species: MOUSE, Target Tissue: Type of Lesion: SKIN: PAPILLOMA, Promoter: 12-O-TETRADECANOYLPHORBOL-13-ACETATE, 16561-29-8.

Turning to `CC1=C(/C=C/C(C)=C/C=C/C(C)=C/C(=O)O)C(C)(C)CCC1`, the “tumour outcome (control, treated, inhibition, significance)” value by setting is: (Dose [Inhibitor]: 17 NMOL IN 0.2 ML ACETONE 1 HR PRIOR TO EACH PROMOTER DOSE BEGINNING AT WEEK 10 OF PROMOTION AND CONTINUING FOR DURATION, Strain/Sex: CD-1/FEMALE, Dose [Carcinogen]: 200 NMOL IN 0.2 ML ACETONE ONCE) 100%, 95%, 5%, p>0.3; (Dose [Inhibitor]: 17 NMOL IN 0.2 ML ACETONE 1 HR PRIOR TO EACH PROMOTER DOSE FOR 12 WK (STUDY DURATION: 14 WK), Strain/Sex: SENCAR/FEMALE, Dose [Carcinogen]: 200 NMOL IN 0.2 ML ACETONE ONCE) 100%, 87%, 13%, not calculated; (Dose [Inhibitor]: 17 NMOL IN 0.2 ML ACETONE 1 HR PRIOR TO EACH PROMOTER DOSE FOR 20 WK (STUDY DURATION: 22 WK), Strain/Sex: CD-1/FEMALE, Dose [Carcinogen]: 200 NMOL IN 0.2 ML ACETONE ONCE) 94%, 62%, 34%, not calculated; (Dose [Inhibitor]: 17 NMOL IN 0.2 ML ACETONE 1 HR PRIOR TO EACH PROMOTER DOSE FOR DURATION OF STUDY (STUDY DURATION: 27 WK), Strain/Sex: CD-1/FEMALE, Dose [Carcinogen]: 200 NMOL IN 0.2 ML ACETONE ONCE) 100%, 60%, 40%, p<0.02; (Dose [Inhibitor]: 17 NMOL IN 0.2 ML ACETONE 1 HR PRIOR TO EACH PROMOTER DOSE FOR FIRST 10 WK OF PROMOTION (STUDY DURATION: 27 WK), Strain/Sex: CD-1/FEMALE, Dose [Carcinogen]: 200 NMOL IN 0.2 ML ACETONE ONCE) 100%, 90%, 10%, p>0.3; (Dose [Inhibitor]: 17 NMOL IN 0.2 ML ACETONE 2/WK 1 HR BEFORE EACH PROMOTER APPLICATION STARTING 14 D AFTER CARCINOGEN APPLICATION AND CONT, Strain/Sex: CD-1/FEMALE, Dose [Carcinogen]: 0.2 UMOL IN 0.2 ML ACETONE ONCE) 98%, 42%, 57%, not calculated. The “tumour outcome (control, treated, inhibition, significance)” value reads like this: (Dose [Inhibitor]: 17 NMOL IN 0.2 ML ACETONE 2/WK 1 HR BEFORE EACH PROMOTER APPLICATION STARTING 14 D AFTER CARCINOGEN APPLICATION AND CONT, Strain/Sex: CD-1/FEMALE, Dose [Carcinogen]: 0.2 UMOL ONCE) 100%, 80%, 20%, not significant; (Dose [Inhibitor]: 17 NMOL IN 0.2 ML ACETONE 2/WK 24 HR AFTER EACH PROMOTER TREATMENT STARTING 14 D AFTER CARCINOGEN TREATMENT AND CONTINUI, Strain/Sex: CD-1/FEMALE, Dose [Carcinogen]: 0.2 UMOL IN 0.2 ML ACETONE ONCE) 98%, 96%, 2%, not significant; (Dose [Inhibitor]: 34 NMOL IN 0.2 ML ACETONE 2/WK 1 HR BEFORE EACH PROMOTER APPLICATION STARTING 14 D AFTER CARCINOGEN APPLICATION AND CONT, Strain/Sex: CD-1/FEMALE, Dose [Carcinogen]: 0.2 UMOL IN 0.2 ML ACETONE ONCE) 90%, 55%, 39%, not calculated and 90%, 48%, 47%, not calculated; (Dose [Inhibitor]: 68 NMOL IN 0.2 ML ACETONE 2/WK 1 HR BEFORE EACH PROMOTER APPLICATION STARTING 14 D AFTER CARCINOGEN APPLICATION AND CONT, Strain/Sex: CD-1/FEMALE, Dose [Carcinogen]: 0.2 UMOL IN 0.2 ML ACTEONE ONCE) 95%, 53%, 44%, not calculated.
